Several values for one entry are separate records, joined by “and”; a condition that tells them apart may be missing. Equal entries are not always repeated.

The test system of the experiment is 616215-338-R-J1-PDC complex spheroids, viability % test/control. Nature of the experiment: Anticancer human tumor 616215-338-R-J1-PDC patient-derived colon adenocarcinoma cell line growth inhibition [CLK]. Particulars: for viability, T/C: stronger effect = lower value. In outline:
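Patient-derived tumor cells grown as complex spheroids with HUVEC endothelial cells and mesenchymal stem cells, treated with drug combinations. Concentrations descend in half-log steps from near clinical Cmax, or from 10 microM if Cmax unknown.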

Where [1] appears, read: curve of first compound, second compound 0.0316 µM.
[2] abbreviates: curve of first compound, second compound 0.1 µM.
[3] abbreviates: curve of first compound, second compound 0.316 µM.
The mark [4] stands for this setting: curve of first compound, second compound 1 µM.
The mark [5] stands for this setting: curve of first compound, second compound 3.16 µM.
Setting [6] is: curve of first compound, second compound 10 µM.
Setting [7] is: second compound 0.0316 µM, first compound 0.0316 µM.
Where [8] appears, read: second compound 0.0316 µM, first compound 0.1 µM.
Setting [9] is: second compound 0.0316 µM, first compound 0.316 µM.
[10] abbreviates: second compound 0.0316 µM, first compound 1 µM.
Setting [11] is: second compound 0.0316 µM, first compound 3.16 µM.
The mark [12] stands for this setting: second compound 0.0316 µM, first compound 10 µM.
The mark [13] stands for this setting: second compound 0.1 µM, first compound 0.0316 µM.
[14] abbreviates: second compound 0.1 µM, first compound 0.1 µM.
Setting [15] is: second compound 0.1 µM, first compound 0.316 µM.
[16] abbreviates: second compound 0.1 µM, first compound 1 µM.
Setting [17] is: second compound 0.1 µM, first compound 3.16 µM.
Where [18] appears, read: second compound 0.1 µM, first compound 10 µM.
Where [19] appears, read: second compound 0.316 µM, first compound 0.0316 µM.
The mark [20] stands for this setting: second compound 0.316 µM, first compound 0.1 µM.
The mark [21] stands for this setting: second compound 0.316 µM, first compound 0.316 µM.
Where [22] appears, read: second compound 0.316 µM, first compound 1 µM.
Where [23] appears, read: second compound 0.316 µM, first compound 3.16 µM.
Where [24] appears, read: second compound 0.316 µM, first compound 10 µM.
Setting [25] is: second compound 1 µM, first compound 0.0316 µM.
Setting [26] is: second compound 1 µM, first compound 0.1 µM.
Setting [27] is: second compound 1 µM, first compound 0.316 µM.
The mark [28] stands for this setting: second compound 1 µM, first compound 1 µM.
Where [29] appears, read: second compound 1 µM, first compound 3.16 µM.
Where [30] appears, read: second compound 1 µM, first compound 10 µM.
Setting [31] is: second compound 3.16 µM, first compound 0.0316 µM.
The mark [32] stands for this setting: second compound 3.16 µM, first compound 0.1 µM.
[33] abbreviates: second compound 3.16 µM, first compound 0.316 µM.
Where [34] appears, read: second compound 3.16 µM, first compound 1 µM.
Setting [35] is: second compound 3.16 µM, first compound 3.16 µM.
[36] abbreviates: second compound 3.16 µM, first compound 10 µM.
The mark [37] stands for this setting: second compound 10 µM, first compound 0.0316 µM.
[38] abbreviates: second compound 10 µM, first compound 0.1 µM.
Setting [39] is: second compound 10 µM, first compound 0.316 µM.
Setting [40] is: second compound 10 µM, first compound 1 µM.
Where [41] appears, read: second compound 10 µM, first compound 3.16 µM.
Setting [42] is: second compound 10 µM, first compound 10 µM.
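Further: spheroids exposed to agents for 7 days.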
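Wherever viability, T/C is given: 100% = DMSO vehicle wells.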

For `C=CC(=O)N1CCN(c2nc(=O)n(-c3c(C)ccnc3C(C)C)c3nc(-c4c(O)cccc4F)c(F)cc23)C(C)C1` (centres undefined) + CN1CCN(c2cc(C(=O)Nc3cc4cc(-c5cnn(C)c5)ccc4cn3)ccn2)CC1, the half-inhibitory concentration (IC50) by setting is: under setting [1], above 10000 nM; under setting [2], above 10000 nM; under setting [3], below 31.6 nM; under setting [4], below 31.6 nM; under setting [5], below 31.6 nM; under setting [6], below 31.6 nM. The viability, T/C was 104% under setting [7]; 116% under setting [8]; 107% under setting [9]; 104% under setting [10]; 111% under setting [11]; 102% under setting [12]. Besides, the viability, T/C by setting is: under setting [13], 116%; under setting [14], 113%; under setting [15], 107%; under setting [16], 114%; under setting [17], 115%; under setting [18], 110%. Moreover, the viability, T/C reads like this: under setting [19], 34.9%; under setting [20], 43%; under setting [21], 43.7%; under setting [22], 50.9%; under setting [23], 49.9%; under setting [24], 28.1%. The viability, T/C was 0.2% under setting [25]; 0.5% under setting [26]; 0.21% under setting [27]; 0.2% under setting [28]; 0.15% under setting [29]; 0.24% under setting [30]. Further, the viability, T/C by setting is: under setting [31], 0.13%; under setting [32], 1.31%; under setting [33], 0.14%; under setting [34], 0.14%; under setting [35], 0.13%; under setting [36], 1.21%. Further, the viability, T/C runs as follows: under setting [37], 0.17%; under setting [38], 0.19%; under setting [39], 0.51%; under setting [40], 0.2%; under setting [41], 0.2%; under setting [42], 0.17%.
With `O=c1[nH]cc(F)c(=O)[nH]1` + CNC(=O)c1ccc(Nc2nc(OC3CCCC3)c3c(-c4ccc5nc(C)oc5c4)c[nH]c3n2)c(OC)c1, the IC50 under setting [1] was 707 nM; the IC50 under setting [2] was below 31.6 nM; the IC50 under setting [3] is below 31.6 nM; the IC50 under setting [4] was below 31.6 nM; the IC50 under setting [5] is below 31.6 nM; the IC50 under setting [6] was below 31.6 nM. In addition, the viability, T/C reads like this: under setting [7], 96.7%; under setting [8], 110%; under setting [9], 60.2%; under setting [10], 52.3%; under setting [11], 43.1%; under setting [12], 41.4%. The viability, T/C was 47% under setting [13]; 45.9% under setting [14]; 35% under setting [15]; 34.1% under setting [16]; 40.9% under setting [17]; 36.5% under setting [18]. Besides, the viability, T/C under setting [19] is 41.6%; the viability, T/C under setting [20] is 41.7%; the viability, T/C under setting [21] is 33.6%; the viability, T/C under setting [22] is 37.3%; the viability, T/C under setting [23] was 36.6%; the viability, T/C under setting [24] was 39.3%. Besides, the viability, T/C under setting [25] is 43.4%; the viability, T/C under setting [26] was 38%; the viability, T/C under setting [27] is 36.3%; the viability, T/C under setting [28] was 37.8%; the viability, T/C under setting [29] is 38.2%; the viability, T/C under setting [30] is 33.3%. In addition, the viability, T/C runs as follows: under setting [31], 42.3%; under setting [32], 42.2%; under setting [33], 38%; under setting [34], 32.6%; under setting [35], 36%; under setting [36], 36.4%. The viability, T/C runs as follows: under setting [37], 51.1%; under setting [38], 41.3%; under setting [39], 41.8%; under setting [40], 38.5%; under setting [41], 37.1%; under setting [42], 39.2%.
Consider `C#Cc1c(F)ccc2cc(O)cc(-c3ncc4c(N5CC6CCC(C5)N6)nc(OCC56CCCN5CC(F)C6)nc4c3F)c12` (centres undefined), for which the viability, T/C was 95.4% and 102% (compound 0.0316 µM); 96.2% and 91.8% (compound 0.1 µM); 100% and 104% (compound 0.316 µM); 119% and 114% (compound 1 µM); 133% and 98.2% (compound 3.16 µM); 83.3% and 65.1% (compound 10 µM). Also, the IC50 (curve of compound) is above 10000 nM.
For the compound `CCN1CCN(Cc2ccc(Nc3ncc(F)c(-c4cc(F)c5nc(C)n(C(C)C)c5c4)n3)nc2)CC1`, the viability, T/C runs as follows: (compound 0.00316 µM) 104% and 92%; (compound 0.01 µM) 125% and 93.7%; (compound 0.0316 µM) 111% and 103%; (compound 0.1 µM) 139% and 121%; (compound 0.316 µM) 158% and 189%; (compound 1 µM) 59.4% and 69.7%. Where the note is “curve of compound”, the IC50 was above 1000 nM.
Regarding `COc1ccc([C@@H](O)c2cc(-c3ncnc4cc(N5CCOCC5)ccc34)c(F)cc2Cl)nn1`, the viability, T/C (compound 0.0316 µM) was 102% and 93.5%; the viability, T/C (compound 0.1 µM) was 106% and 104%; the viability, T/C (compound 0.316 µM) was 111% and 108%; the viability, T/C (compound 1 µM) was 107% and 99.3%; the viability, T/C (compound 3.16 µM) was 112% and 118%; the viability, T/C (compound 10 µM) was 77.8% and 78.4%. Also, under “curve of compound”, the IC50 was above 10000 nM.
On to `CC1COCCN1c1cc(C2(S(C)(=N)=O)CC2)nc(-c2ccnc3[nH]ccc23)n1` (centres undefined) + CNC(=O)c1ccc(Nc2nc(OC3CCCC3)c3c(-c4ccc5nc(C)oc5c4)c[nH]c3n2)c(OC)c1, for which the IC50 was above 10000 nM under setting [1]; 1220 nM under setting [2]; below 31.6 nM under setting [3]; below 31.6 nM under setting [4]; 42 nM under setting [5]; below 31.6 nM under setting [6]. In addition, the viability, T/C under setting [7] is 95.5%; the viability, T/C under setting [8] is 91.2%; the viability, T/C under setting [9] was 90.9%; the viability, T/C under setting [10] is 98.4%; the viability, T/C under setting [11] was 101%; the viability, T/C under setting [12] is 78.7%. For the same compound, the viability, T/C is, setting by setting: under setting [13], 53.4%; under setting [14], 57.4%; under setting [15], 52.6%; under setting [16], 51.8%; under setting [17], 44.8%; under setting [18], 36.6%. The viability, T/C was 48.3% under setting [19]; 45.4% under setting [20]; 51.5% under setting [21]; 46.7% under setting [22]; 56.9% under setting [23]; 36.1% under setting [24]. The viability, T/C by setting is: under setting [25], 54.5%; under setting [26], 44%; under setting [27], 47%; under setting [28], 46.4%; under setting [29], 44.5%; under setting [30], 31.7%. In addition, the viability, T/C is 49.7% under setting [31]; 49.6% under setting [32]; 46.3% under setting [33]; 39.8% under setting [34]; 37.7% under setting [35]; 29.5% under setting [36]. The viability, T/C by setting is: under setting [37], 43.1%; under setting [38], 37.4%; under setting [39], 40.9%; under setting [40], 36.9%; under setting [41], 33.3%; under setting [42], 30.9%.
As for `CC(=O)O[C@H]1C(=O)[C@@]2(C)[C@H]([C@H](OC(=O)c3ccccc3)[C@]3(O)C[C@H](OC(=O)[C@H](O)[C@@H](NC(=O)c4ccccc4)c4ccccc4)C(C)=C1C3(C)C)[C@]1(OC(C)=O)CO[C@@H]1C[C@@H]2O`, the viability, T/C by setting is: (compound 0.0316 µM) 32.9% and 37.9%; (compound 0.1 µM) 22.2% and 31.7%; (compound 0.316 µM) 18.2% and 24%; (compound 1 µM) 15.4% and 23.8%; (compound 3.16 µM) 19.5% and 23.1%; (compound 10 µM) 24% and 28.7%. Moreover, the IC50 (curve of compound) was below 31.6 nM.
